Assay [1] has as its system wild type S. epidermidis RP62A. Kind of assay: microbe, parasite or virus in culture. It is filed as cell-based, Staphylococcus epidermidis. The settings on record: for MIC: Staphylococcus epidermidis, read-out: MIC, S. epidermidis.
Assay [2] has as its system lepB(P29S) S. aureus 8325. Kind of assay: microbe, parasite or virus in culture. The settings on record: for MIC: Staphylococcus aureus, read-out: MIC, S. aureus P29S. It is filed as cell-based, Staphylococcus aureus.
Assay [3] has as its system lepB(P84L) E. coli MG1655. Kind of assay: microbe, parasite or virus in culture. The settings on record: for MIC: Escherichia coli, MG1655, read-out: MIC, E. coli P84L. It is filed as cell-based, Escherichia coli.
The subject of assay [4] is lepB(P84L) P. aeruginosa PAO1. In words: microbe, parasite or virus in culture. It is filed as cell-based, Pseudomonas aeruginosa. The settings on record: for MIC: Pseudomonas aeruginosa, PAO1, read-out: MIC, P. aeruginosa P84L.
The test system of the next assay is wild type E. coli MG1655. Kind of assay: microbe, parasite or virus in culture. It is filed as cell-based, Escherichia coli. The settings on record: for MIC: Escherichia coli, MG1655, read-out: MIC, E. coli.
The next assay concerns B. brevis. In words: microbe, parasite or virus in culture. It is filed as cell-based, Brevibacillus brevis. The settings on record: for MIC: Brevibacillus brevis, Table 4, read-out: MIC, B. brevis.
For a further assay, the system named is R. equi. In words: microbe, parasite or virus in culture. Format: cell-based. To be noted: Rhodococcus (subgen. Prescottella) equi; Table 4.
The subject of another assay is R. opacus. In words: microbe, parasite or virus in culture. Format: cell-based. To be noted: Rhodococcus opacus; Table 4; read-out: MIC, R. opacus.
The subject of another assay is S. agalactiae. In words: microbe, parasite or virus in culture. Format: cell-based, Streptococcus agalactiae.
The test system of a further assay is S. pyogenes. Kind of assay: microbe, parasite or virus in culture. Format: cell-based, Streptococcus pyogenes.
The next assay deals with S. pneumoniae. Kind of assay: microbe, parasite or virus in culture. Format: cell-based, Streptococcus pneumoniae.
A further assay deals with C. efficiens. Kind of assay: microbe, parasite or virus in culture. The settings on record: Corynebacterium efficiens, Table 4; read-out: MIC, C. efficiens. Format: cell-based.
The subject of the next assay is C. glutamicum. Kind of assay: microbe, parasite or virus in culture. It is filed as cell-based, Corynebacterium glutamicum. The settings on record: Corynebacterium glutamicum; Table 4; read-out: MIC, C. glutamicum.
For a further assay, the system named is L. lactis. In words: microbe, parasite or virus in culture. It is filed as cell-based, Lactococcus lactis. The settings on record: Lactococcus lactis, Table 4.
In assay [5] the test system is spsB(S29P) S. epidermidis RP62A. Kind of assay: microbe, parasite or virus in culture. It is filed as cell-based, Staphylococcus epidermidis.
A further assay has as its system wild type S. aureus 8325. Kind of assay: microbe, parasite or virus in culture. Format: cell-based, Staphylococcus aureus.
Assay [6] has as its system wild type P. aeruginosa PAO1. In words: microbe, parasite or virus in culture. Format: cell-based, Pseudomonas aeruginosa.
Assay [7] concerns S. epidermidis ATCC 35984. In words: MIC. To be noted: Table 1. It is filed as cell-based.

≈ marks a conversion by molar mass, not a printed value. Like-named read-outs stand apart in the source and are kept apart here.

In the case of `CCCCCCCCCCCCCCCC(=O)N(C)[C@H](CO)C(=O)N[C@H](C)C(=O)NCC(=O)N(C)[C@@H]1C(=O)NC(C)C(=O)N[C@H](C(=O)O)Cc2cc(c(O)c([N+](=O)[O-])c2)-c2cc1ccc2O` (stereo partly shown) [Arylomycin B-C16], the MIC in assay [1] is 0.13 µg/mL (≈ 0.14 µM); in assay [2], 8 µg/mL (≈ 8.64 µM); in [3], 2 µg/mL (≈ 2.16 µM); in assay [4] it was 4 µg/mL (≈ 4.32 µM); in the assay with wild type E. coli MG1655 it was above 64 µg/mL; in the assay on B. brevis it was above 64 µg/mL. The MIC against R. equi turned out to be 32 µg/mL (≈ 34.6 µM); with R. opacus, 4 µg/mL (≈ 4.32 µM); in the assay on S. agalactiae (Streptococcus agalactiae, Table 4, read-out: MIC, S. agalactiae), 8 µg/mL (≈ 8.64 µM); in the assay with S. pyogenes (Streptococcus pyogenes, Table 4, read-out: MIC, S. pyogenes) it was 4 µg/mL (≈ 4.32 µM); in the assay on S. pneumoniae (Streptococcus pneumoniae, Table 4, read-out: MIC, S. pneumoniae) it was 16 µg/mL (≈ 17.3 µM); with C. efficiens, 16 µg/mL (≈ 17.3 µM). Further, the MIC with C. glutamicum came out at 2 µg/mL (≈ 2.16 µM); in the assay on L. lactis, 32 µg/mL (≈ 34.6 µM). Further, in the assay with B. brevis (MHBII broth and nutrient broth), the “activity against B. brevis” value was “no activity”. In the assay with S. agalactiae, the “fold more activity against Streptococcus agalactiae than arylomycin C16” value was “greater than 16 fold”. Besides, the “MIC, S. agalactiae” value in the assay with S. agalactiae (Table 14) stood at 8 µg/mL (≈ 8.64 µM). Also, the “MIC, S. pyogenes” value with S. pyogenes (Table 14) turned out to be 4 µg/mL (≈ 4.32 µM). Besides, the “MIC, S. pneumoniae” value in the assay on S. pneumoniae (Table 14) was 16 µg/mL (≈ 17.3 µM).
As to `CCCCCCCCCCCCCCCC(=O)N[C@H](CO)C(=O)N[C@H](C)C(=O)NCC(=O)N(C)[C@@H]1C(=O)N[C@@H](C)C(=O)N[C@H](C(=O)O)Cc2ccc(O)c(c2)-c2cc1ccc2O` [Compound 17], the “MIC, Sensitive Se” value in assay [1] is 1 µg/mL (≈ 1.15 µM). The “MIC, Sensitive Sa” value in assay [2] is 16 µg/mL (≈ 18.5 µM). Also, the “MIC, Sensitive Ec” value in assay [3] was found to be 4 µg/mL (≈ 4.61 µM). In addition, in assay [4], the “MIC, Sensitive Pa” value is above 64 µg/mL. Further, the “MIC, Resistant Se” value in assay [5] worked out at 32 µg/mL (≈ 36.9 µM). Besides, the “MIC, Resistant Sa” value with wild type S. aureus 8325 is above 64 µg/mL. In the assay with wild type E. coli MG1655, the “MIC, Resistant Ec” value is above 64 µg/mL. For the same compound, in assay [6], the “MIC, Resistant Pa” value was above 64 µg/mL.
As to `CCCCCCCCCCCCCCCC(=O)N(C)[C@H](CO)C(=O)N(C)[C@H](C)C(=O)NCC(=O)N(C)[C@@H]1C(=O)N[C@@H](C)C(=O)N[C@H](C(=O)O)Cc2ccc(O)c(c2)-c2cc1ccc2O` [Compound 18], the “MIC, Sensitive Se” value in assay [1] was above 64 µg/mL. In [2], the “MIC, Sensitive Sa” value was above 64 µg/mL. The “MIC, Sensitive Ec” value in assay [3] was above 64 µg/mL. Besides, in assay [4], the “MIC, Sensitive Pa” value is above 64 µg/mL. Besides, the “MIC, Resistant Se” value in assay [5] was above 64 µg/mL. Besides, the “MIC, Resistant Sa” value in the assay with wild type S. aureus 8325 is above 64 µg/mL. Moreover, the “MIC, Resistant Ec” value in the assay on wild type E. coli MG1655 was above 64 µg/mL. Also, the “MIC, Resistant Pa” value in assay [6] was above 64 µg/mL.
Turning to `CCCCCCCCCCCCCCCC(=O)N1CC(O)CC1C(=O)NC(C)C(=O)NCC(=O)N(C)C1C(=O)NC(C)C(=O)NC(C(=O)O)Cc2ccc(O)c(c2)-c2cc1ccc2O` (stereo not shown) [Compound 19], the “MIC, Sensitive Se” value in assay [1] was 4 µg/mL (≈ 4.48 µM). The “MIC, Sensitive Sa” value in [2] was 4 µg/mL (≈ 4.48 µM). Besides, in [3], the “MIC, Sensitive Ec” value was above 64 µg/mL. Moreover, the “MIC, Sensitive Pa” value in assay [4] was above 64 µg/mL. The “MIC, Resistant Se” value in assay [5] was 8 µg/mL (≈ 8.96 µM). Also, the “MIC, Resistant Sa” value in the assay on wild type S. aureus 8325 is above 64 µg/mL. Also, the “MIC, Resistant Ec” value with wild type E. coli MG1655 was above 64 µg/mL. Moreover, in assay [6], the “MIC, Resistant Pa” value was above 64 µg/mL.
With `CCCCCCCCCCCCCCCC(=O)N(C)C(CO)CCC(=O)NC(C)C(=O)NCC(=O)N(C)C1C(=O)NC(C)C(=O)NC(C(=O)O)Cc2ccc(O)c(c2)-c2cc1ccc2O` (stereo not shown) [Compound 24], the “MIC, Sensitive Se” value in assay [1] was 8 µg/mL (≈ 8.8 µM). In [2], the “MIC, Sensitive Sa” value is 4 µg/mL (≈ 4.4 µM). Further, the “MIC, Sensitive Ec” value in assay [3] was above 64 µg/mL. Also, the “MIC, Sensitive Pa” value in assay [4] is above 64 µg/mL. Further, the “MIC, Resistant Se” value in assay [5] was found to be 16 µg/mL (≈ 17.6 µM). Besides, the “MIC, Resistant Sa” value against wild type S. aureus 8325 is 16 µg/mL (≈ 17.6 µM). Further, in the assay on wild type E. coli MG1655, the “MIC, Resistant Ec” value is above 64 µg/mL. The “MIC, Resistant Pa” value in [6] is above 64 µg/mL.
For `CCCCCCCCCCCCCCCC(=O)N(C)[C@H](CO)C(=O)N[C@H](C)C(=O)NCC(=O)N(C)[C@@H]1C(=O)NCC(=O)N[C@H](C(=O)O)Cc2ccc(O)c(c2)-c2cc1ccc2O` [Compound 26], the “fold loss of activity against S. epidermidis relative to arylomycin C16” value in assay [1] amounted to 32 fold. For the same compound, the “fold loss of activity against sensitized S. aureus relative to arylomycin C16” value in assay [2] is on record as above 16 fold. For the same compound, the “fold loss of activity against sensitized E. coli relative to arylomycin C16” value in assay [3] stood at 32 fold. The “fold loss of activity against sensitized P. aeruginosa relative to arylomycin C16” value in [4] is above 16 fold.
With `CCCCCCCCCCCCCCCC(=O)N(C)C(CO)C(=O)NC(C)C(=O)NCC(=O)N(C)C1C(=O)NC(CCCC)C(=O)NC(C(=O)O)Cc2ccc(O)c(c2)-c2cc1ccc2O` (stereo not shown) [Compound 29], the “fold loss of activity against sensitized S. aureus relative to arylomycin C16” value in assay [2] was 32 fold.
As for `CCCCCCCCCCCCCCCC(=O)N(C)C(CO)C(=O)NC(C)C(=O)NCC(=O)N(C)C1C(=O)NC(CCCCC)C(=O)NC(C(=O)O)Cc2ccc(O)c(c2)-c2cc1ccc2O` (stereo not shown) [Compound 30], the “fold loss of activity against sensitized S. aureus relative to arylomycin C16” value in assay [2] amounted to 32 fold.
As to `CCCCCCCCCCCCCCCC(=O)N(C)C(CO)C(=O)NC(C)C(=O)NCC(=O)N(C)C1C(=O)NC(CC(F)(F)F)C(=O)NC(C(=O)O)Cc2ccc(O)c(c2)-c2cc1ccc2O` (stereo not shown) [Compound 33], the “fold loss of activity against S. epidermidis relative to arylomycin C16” value in [1] was determined as 32 fold. For the same compound, the “fold loss of activity against sensitized S. aureus relative to arylomycin C16” value in assay [2] is “at least 16 fold”. Besides, the “fold loss of activity against sensitized E. coli relative to arylomycin C16” value in [3] came out at 8 fold. For the same compound, the “fold loss of activity against sensitized P. aeruginosa relative to arylomycin C16” value in [4] was “at least 16 fold”.
As to `CCCCCCCCCCCCCCCC(=O)N(C)C(CO)C(=O)NC(C)C(=O)NCC(=O)N(C)C1C(=O)NC(C(C)C)C(=O)NC(C(=O)O)Cc2ccc(O)c(c2)-c2cc1ccc2O` (stereo not shown) [Compound 34], the “fold loss of activity against sensitized P. aeruginosa relative to arylomycin C16” value in assay [4] is listed as 4 fold.
On the same count and under the same terms, then `CCCCCCCCCCCCCCCC(=O)N(C)C(CO)C(=O)NC(C)C(=O)NCC(=O)N(C)C1C(=O)NC(CC(C)C)C(=O)NC(C(=O)O)Cc2ccc(O)c(c2)-c2cc1ccc2O` (stereo not shown) [Compound 35], with above 16 fold.
Turning to `CCCCCCCCCCCCCCCC(=O)N(C)[C@H](CO)C(=O)N[C@H](C)C(=O)NCC(=O)N(C)[C@@H]1C(=O)N[C@@H](C)C(=O)N[C@H](C(=O)O)Cc2cc(N)c(O)c(c2)-c2cc1ccc2O` [Compound 36], the MIC in [1] was 8 µg/mL (≈ 8.93 µM); in [2] it was 64 µg/mL (≈ 71.4 µM); in [3], 16 µg/mL (≈ 17.9 µM); in [4] it was 32 µg/mL (≈ 35.7 µM); with wild type E. coli MG1655 it was above 64 µg/mL; in the assay on B. brevis, above 64 µg/mL. Besides, in assay [1] (sensitive (wild type) strain), the “fold loss of activity against S. epidermidis relative to arylomycin C16” value stood at 32 fold. For the same compound, in assay [2], the “fold loss of activity against sensitized S. aureus relative to arylomycin C16” value worked out at 32 fold. Further, in [3], the “fold loss of activity against sensitized E. coli relative to arylomycin C16” value is 8 fold. Also, the “fold loss of activity against sensitized P. aeruginosa relative to arylomycin C16” value in [4] is 8 fold.
For the compound Arylomycin A2 [reference compound], in the assay with wild type S. aureus 8325 (Table 1), the “MIC, S. aureus 8325” value is above 128 µM. In addition, the “MIC, E. coli MG1655” value in the assay with wild type E. coli MG1655 (Table 1) was above 128 µM. For the same compound, the “MIC, S. epidermidis ATCC 35984” value in assay [7] stood at 1 µM.

For the origin of these results see US9187524B2, “Broad spectrum antibiotic arylomycin analogs” (The Scripps Research Institute, priority 2010, dated 2015).
